This note sets out measurements from ChEMBL document CHEMBL5136987, “Redesigning of the cap conformation and symmetry of the diphenylethyne core to yield highly potent pan-genotypic NS5A inhibitors with high potency and high resistance barrier” (Eur J Med Chem, 2022).

pEC50: −log10 of the molar value.

System in one series: not listed separately
Description: Selectivity index, ratio of CC50 for cytotoxicity against human Huh-5-2 cells carrying HCV subgenomic replicon assessed as decrease in intracellular ATP level to EC50 for antiviral activity against HCV GT-1b Con1 in human Huh-5-2 cells carrying HCV subgenomic replicon assessed as reduction of viral replication. In kind it is toxicity, cell-based. Particulars: read-out: Ratio CC50/EC50.
For the compound `COC(=O)N[C@@H](CC(C)C)C(=O)N1CCC[C@H]1C(=O)Nc1cccc(C#Cc2cccc(NC(=O)[C@@H]3CCCN3C(=O)[C@H](CC(C)C)NC(=O)OC)c2)c1`, the selectivity ratio stood at 407000.

On to `COC(=O)N[C@H](C(=O)N1CCC[C@H]1C(=O)Nc1cccc(C#Cc2cccc(NC(=O)[C@@H]3CCCN3C(=O)[C@@H](NC(=O)OC)c3ccccc3)c2)c1)c1ccccc1`, for which the selectivity ratio came out at 5.56e+06.

Consider `COC(=O)N[C@@H](C(=O)N1CCC[C@H]1C(=O)Nc1cccc(C#Cc2cccc(NC(=O)[C@@H]3CCCN3C(=O)[C@H](NC(=O)OC)C(C)C)c2)c1)C(C)C`, for which the selectivity ratio is above 891.

As for `CCSC[C@@H](NC(=O)OC)C(=O)N1CCC[C@H]1C(=O)Nc1cccc(C#Cc2cccc(NC(=O)[C@@H]3CCCN3C(=O)[C@@H](CSCC)NC(=O)OC)c2)c1`, the selectivity ratio was determined as 13000.

`COC(=O)N[C@H](C(=O)N1CCC[C@H]1C(=O)Nc1ccc(C#Cc2cccc(NC(=O)[C@@H]3CCCN3C(=O)[C@@H](NC(=O)OC)C(C)C)c2)cc1)C(C)C`: the selectivity ratio turned out to be 231000.

Take `CCOC(=O)N[C@H](C(=O)N1CCC[C@H]1C(=O)Nc1cccc(C#Cc2cccc(NC(=O)[C@@H]3CCCN3C(=O)[C@@H](NC(=O)OCC)C(C)C)c2)c1)C(C)C`: the selectivity ratio is above 8230.

As for `COC(=O)N[C@H](C(=O)N1CCC[C@H]1C(=O)Nc1cccc(C#Cc2cccc(NC(=O)[C@@H]3CCCN3C(=O)[C@@H](NC(=O)OC)C(C)C)c2)c1)C(C)C`, the selectivity ratio is above 3.25e+06.

For `COC(=O)N[C@H](CC(C)C)C(=O)N1CCC[C@H]1C(=O)Nc1cccc(C#Cc2cccc(NC(=O)[C@@H]3CCCN3C(=O)[C@@H](CC(C)C)NC(=O)OC)c2)c1`, the selectivity ratio was determined as 560000.

`COC(=O)N[C@H](CCSC)C(=O)N1CCC[C@H]1C(=O)Nc1cccc(C#Cc2cccc(NC(=O)[C@@H]3CCCN3C(=O)[C@@H](CCSC)NC(=O)OC)c2)c1`: the selectivity ratio is above 1890.

Regarding `COC(=O)N[C@@H](C(=O)N1CCC[C@H]1C(=O)Nc1ccc(C#Cc2cccc(NC(=O)[C@@H]3CCCN3C(=O)[C@H](NC(=O)OC)c3ccccc3)c2)cc1)c1ccccc1`, the selectivity ratio is above 995.

As to `CCOC(=O)N[C@@H](CC(C)C)C(=O)N1CCC[C@H]1C(=O)Nc1cccc(C#Cc2cccc(NC(=O)[C@@H]3CCCN3C(=O)[C@H](CC(C)C)NC(=O)OCC)c2)c1`, the selectivity ratio turned out to be 968.

In a further series the test system is Hepatitis C virus. Description: Antiviral activity against HCV GT-1b Con1 in human Huh-5-2 cells carrying HCV subgenomic replicon assessed as reduction of viral replication measured after 72 hrs by Firefly luciferase reporter gene assay. The format is functional, organism-based, Hepacivirus hominis. The following applies: subtype 1b Con1, Huh-5-2, 72 h.
On to `COC(=O)N[C@@H](CC(C)C)C(=O)N1CCC[C@H]1C(=O)Nc1cccc(C#Cc2cccc(NC(=O)[C@@H]3CCCN3C(=O)[C@H](CC(C)C)NC(=O)OC)c2)c1`, for which the pEC50 is 9.87.

As for `COC(=O)N[C@H](C(=O)N1CCC[C@H]1C(=O)Nc1cccc(C#Cc2cccc(NC(=O)[C@@H]3CCCN3C(=O)[C@@H](NC(=O)OC)c3ccccc3)c2)c1)c1ccccc1`, the pEC50 was 11.36.

`COC(=O)N[C@@H](C(=O)N1CCC[C@H]1C(=O)Nc1cccc(C#Cc2cccc(NC(=O)[C@@H]3CCCN3C(=O)[C@H](NC(=O)OC)C(C)C)c2)c1)C(C)C`: the pEC50 is 8.95.

In the case of `CCSC[C@@H](NC(=O)OC)C(=O)N1CCC[C@H]1C(=O)Nc1cccc(C#Cc2cccc(NC(=O)[C@@H]3CCCN3C(=O)[C@@H](CSCC)NC(=O)OC)c2)c1`, the pEC50 is 9.07.

Turning to `COC(=O)N[C@H](C(=O)N1CCC[C@H]1C(=O)Nc1ccc(C#Cc2cccc(NC(=O)[C@@H]3CCCN3C(=O)[C@@H](NC(=O)OC)C(C)C)c2)cc1)C(C)C`, the pEC50 is 9.75.

Take `CCOC(=O)N[C@H](C(=O)N1CCC[C@H]1C(=O)Nc1cccc(C#Cc2cccc(NC(=O)[C@@H]3CCCN3C(=O)[C@@H](NC(=O)OCC)C(C)C)c2)c1)C(C)C`: the pEC50 is 7.92.

In the case of `COC(=O)N[C@H](C(=O)N1CCC[C@H]1C(=O)Nc1cccc(C#Cc2cccc(NC(=O)[C@@H]3CCCN3C(=O)[C@@H](NC(=O)OC)C(C)C)c2)c1)C(C)C`, the pEC50 was 10.51.

Consider `COC(=O)N[C@H](CC(C)C)C(=O)N1CCC[C@H]1C(=O)Nc1cccc(C#Cc2cccc(NC(=O)[C@@H]3CCCN3C(=O)[C@@H](CC(C)C)NC(=O)OC)c2)c1`, for which the negative logarithm of the EC50 (pEC50) was 9.76.

On to `COC(=O)N[C@H](CCSC)C(=O)N1CCC[C@H]1C(=O)Nc1cccc(C#Cc2cccc(NC(=O)[C@@H]3CCCN3C(=O)[C@@H](CCSC)NC(=O)OC)c2)c1`, for which the pEC50 is 9.28.

Regarding `COC(=O)N[C@@H](C(=O)N1CCC[C@H]1C(=O)Nc1ccc(C#Cc2cccc(NC(=O)[C@@H]3CCCN3C(=O)[C@H](NC(=O)OC)c3ccccc3)c2)cc1)c1ccccc1`, the pEC50 is 9.00.

For the compound `CCOC(=O)N[C@@H](CC(C)C)C(=O)N1CCC[C@H]1C(=O)Nc1cccc(C#Cc2cccc(NC(=O)[C@@H]3CCCN3C(=O)[C@H](CC(C)C)NC(=O)OCC)c2)c1`, the pEC50 was 7.60.

System in a further series: not listed separately
Description: Cytotoxicity against human Huh-5-2 cells carrying HCV subgenomic replicon assessed as decrease in intracellular ATP level measured after 72 hrs by Glo-max luminescence based assay.
Conditions: not given
In kind it is toxicity, cell-based.
On to `COC(=O)N[C@@H](CC(C)C)C(=O)N1CCC[C@H]1C(=O)Nc1cccc(C#Cc2cccc(NC(=O)[C@@H]3CCCN3C(=O)[C@H](CC(C)C)NC(=O)OC)c2)c1`, for which the CC50 at 72 h came to 54400 nM.

For `COC(=O)N[C@H](C(=O)N1CCC[C@H]1C(=O)Nc1cccc(C#Cc2cccc(NC(=O)[C@@H]3CCCN3C(=O)[C@@H](NC(=O)OC)c3ccccc3)c2)c1)c1ccccc1`, the CC50 at 72 h worked out at 24200 nM.

As for `COC(=O)N[C@@H](C(=O)N1CCC[C@H]1C(=O)Nc1cccc(C#Cc2cccc(NC(=O)[C@@H]3CCCN3C(=O)[C@H](NC(=O)OC)C(C)C)c2)c1)C(C)C`, the CC50 at 72 h is above 1000 nM.

Take `CCSC[C@@H](NC(=O)OC)C(=O)N1CCC[C@H]1C(=O)Nc1cccc(C#Cc2cccc(NC(=O)[C@@H]3CCCN3C(=O)[C@@H](CSCC)NC(=O)OC)c2)c1`: the CC50 at 72 h turned out to be 11200 nM.

As for `COC(=O)N[C@H](C(=O)N1CCC[C@H]1C(=O)Nc1ccc(C#Cc2cccc(NC(=O)[C@@H]3CCCN3C(=O)[C@@H](NC(=O)OC)C(C)C)c2)cc1)C(C)C`, the CC50 at 72 h is 41200 nM.

Regarding `CCOC(=O)N[C@H](C(=O)N1CCC[C@H]1C(=O)Nc1cccc(C#Cc2cccc(NC(=O)[C@@H]3CCCN3C(=O)[C@@H](NC(=O)OCC)C(C)C)c2)c1)C(C)C`, the cytotoxic concentration (CC50) at 72 h is above 100000 nM.

Consider `COC(=O)N[C@H](C(=O)N1CCC[C@H]1C(=O)Nc1cccc(C#Cc2cccc(NC(=O)[C@@H]3CCCN3C(=O)[C@@H](NC(=O)OC)C(C)C)c2)c1)C(C)C`, for which the CC50 at 72 h is above 100000 nM.

As for `COC(=O)N[C@H](CC(C)C)C(=O)N1CCC[C@H]1C(=O)Nc1cccc(C#Cc2cccc(NC(=O)[C@@H]3CCCN3C(=O)[C@@H](CC(C)C)NC(=O)OC)c2)c1`, the CC50 at 72 h is 97800 nM.

With `COC(=O)N[C@H](CCSC)C(=O)N1CCC[C@H]1C(=O)Nc1cccc(C#Cc2cccc(NC(=O)[C@@H]3CCCN3C(=O)[C@@H](CCSC)NC(=O)OC)c2)c1`, the CC50 at 72 h was above 1000 nM.

With `COC(=O)N[C@@H](C(=O)N1CCC[C@H]1C(=O)Nc1ccc(C#Cc2cccc(NC(=O)[C@@H]3CCCN3C(=O)[C@H](NC(=O)OC)c3ccccc3)c2)cc1)c1ccccc1`, the CC50 at 72 h was above 1000 nM.

For the compound `CCOC(=O)N[C@@H](CC(C)C)C(=O)N1CCC[C@H]1C(=O)Nc1cccc(C#Cc2cccc(NC(=O)[C@@H]3CCCN3C(=O)[C@H](CC(C)C)NC(=O)OCC)c2)c1`, the CC50 at 72 h was 24200 nM.

The subject of a further series is Hepatitis C virus. Description: Antiviral activity against HCV 3a S52 in human Huh7.5 cells carrying HCV subgenomic replicons assessed as inhibition of viral replication measured after 72 hrs by Firefly luciferase reporter gene assay. In kind it is functional, organism-based, Hepacivirus hominis. The following applies: subtype 3a S52, Huh7.5, 72 h.
In the case of `COC(=O)N[C@H](C(=O)N1CCC[C@H]1C(=O)Nc1cccc(C#Cc2cccc(NC(=O)[C@@H]3CCCN3C(=O)[C@@H](NC(=O)OC)C(C)C)c2)c1)C(C)C`, the pEC50 is 5.67.

A further series relates to Hepatitis C virus. Put plainly: Antiviral activity against HCV 2a JFH1 in human Huh-7 cells carrying HCV subgenomic replicon assessed as inhibition of viral replication measured after 72 hrs by Firefly luciferase reporter gene assay. In kind it is functional, cell-based. Particulars: 2a JFH1, Huh-7, 72 h.
For `COC(=O)N[C@H](C(=O)N1CCC[C@H]1C(=O)Nc1cccc(C#Cc2cccc(NC(=O)[C@@H]3CCCN3C(=O)[C@@H](NC(=O)OC)C(C)C)c2)c1)C(C)C`, the pEC50 was 6.63.

A further series deals with Hepatitis C virus. Put plainly: Antiviral activity against HCV 4a ED43 in human Huh7.5 cells carrying HCV subgenomic replicon assessed as inhibition of viral replication measured after 72 hrs by Firefly luciferase reporter gene assay. The format is functional, organism-based, Hepacivirus hominis. The following applies: subtype 4a ED43, Huh7.5, 72 h.
On to `COC(=O)N[C@H](C(=O)N1CCC[C@H]1C(=O)Nc1cccc(C#Cc2cccc(NC(=O)[C@@H]3CCCN3C(=O)[C@@H](NC(=O)OC)C(C)C)c2)c1)C(C)C`, for which the pEC50 was 6.55.

System in the next series: not listed separately
Put plainly: Metabolic stability in human S9 fraction assessed as half life at 10 mg/ml measured upto 120 mins in presence of NADP […] system by LC-MS/MS analysis. In kind it is ADME, subcellular.
Conditions: not given
As for `COC(=O)N[C@H](C(=O)N1CCC[C@H]1C(=O)Nc1cccc(C#Cc2cccc(NC(=O)[C@@H]3CCCN3C(=O)[C@@H](NC(=O)OC)c3ccccc3)c2)c1)c1ccccc1`, the half-life at 10 mg/ml stood at 1.27 h.

System in a further series: not listed separately
Description: Metabolic stability in human S9 fraction assessed as clearance at 10 mg/ml measured upto 120 mins in presence of NADP […] system by LC-MS/MS analysis. In kind it is ADME, subcellular.
Conditions: not given
As for `COC(=O)N[C@H](C(=O)N1CCC[C@H]1C(=O)Nc1cccc(C#Cc2cccc(NC(=O)[C@@H]3CCCN3C(=O)[C@@H](NC(=O)OC)c3ccccc3)c2)c1)c1ccccc1`, the microsomal CLint was found to be 9.9 µL/min/mg.
